In PubChem BioAssay AID248 (DTP/NCI, 2004):
Several values for one entry are separate records, joined by “and”; a condition that tells them apart may be missing. Identical values can stand only once. Inconclusive results and toxic doses are left out.

Tested on: L1210 leukemia ip in BDF1 mice, survival T/C
Assay: NCI In Vivo Anticancer Drug Screen. Data for tumor model L1210 Leukemia (intraperitoneal) in B6D2F1 (BDF1) mice
Settings: higher = longer survival
Procedure, shortened: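 Tumor cells were implanted, animals were treated, and survival was followed. The result divides the treated measurement by the vehicle-control measurement.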

## OC(C1CO1)C(O)C1CO1 (stereo unspecified)
endpoint: mean survival time, dose: 0.25 mg/kg/injection, schedule: Q03HX008 (ip), vehicle: saline
  T/C: 106 % of control
endpoint: mean survival time, dose: 0.35 mg/kg/injection, schedule: Q01DX009 (ip), vehicle: saline
  T/C: 94 % of control
endpoint: mean survival time, dose: 0.5 mg/kg/injection, schedule: Q01DX009 (ip), vehicle: saline
  T/C: 104 % of control
endpoint: mean survival time, dose: 0.5 mg/kg/injection, schedule: Q03HX008 (ip), vehicle: saline
  T/C: 115 % of control
endpoint: mean survival time, dose: 0.52 mg/kg/injection, schedule: Q01DX009 (ip), vehicle: saline
  T/C: 97 % of control
endpoint: mean survival time, dose: 0.61 mg/kg/injection, schedule: Q04DX003 (ip), vehicle: saline
  T/C: 104 % of control
endpoint: mean survival time, dose: 0.65 mg/kg/injection, schedule: Q01DX009 (ip), vehicle: water
  T/C: 110 % of control
endpoint: mean survival time, dose: 0.96 mg/kg/injection, schedule: Q01DX001 (ip), vehicle: saline
  T/C: 119 % of control
endpoint: mean survival time, dose: 1.0 mg/kg/injection, schedule: Q01DX009 (sc), vehicle: saline
  T/C: 121 % of control
endpoint: mean survival time, dose: 1.0 mg/kg/injection, schedule: Q03HX016 (ip), vehicle: saline
  T/C: 160 % of control
endpoint: mean survival time, dose: 1.0 mg/kg/injection, schedule: Q03HX024 (ip), vehicle: saline
  T/C: 170 % of control
endpoint: mean survival time, dose: 1.0 mg/kg/injection, schedule: Q04DX003 (ip), vehicle: saline
  T/C: 110 % of control and 116 % of control
endpoint: mean survival time, dose: 1.25 mg/kg/injection, schedule: Q04DX003 (ip), vehicle: saline
  T/C: 104 % of control
endpoint: mean survival time, dose: 1.3 mg/kg/injection, schedule: Q01DX009 (ip), vehicle: saline
  T/C: 175 % of control
endpoint: mean survival time, dose: 1.4 mg/kg/injection, schedule: Q01DX001 (ip), vehicle: saline
  T/C: 119 % of control
endpoint: mean survival time, dose: 1.4 mg/kg/injection, schedule: Q01DX009 (ip), vehicle: saline
  T/C: 184 % of control
endpoint: mean survival time, dose: 1.6 mg/kg/injection, schedule: Q01DX009 (ip), vehicle: water
  T/C: 102 % of control
endpoint: mean survival time, dose: 1.87 mg/kg/injection, schedule: Q01DX001 (ip), vehicle: saline
  T/C: 110 % of control
endpoint: mean survival time, dose: 2.0 mg/kg/injection, schedule: Q01DX001 (ip), vehicle: saline
  T/C: 116 % of control
endpoint: mean survival time, dose: 2.0 mg/kg/injection, schedule: Q03HX008 (ip), vehicle: saline
  T/C: 227 % of control
endpoint: mean survival time, dose: 2.0 mg/kg/injection, schedule: Q03HX016 (ip), vehicle: saline
  T/C: 218 % of control
endpoint: mean survival time, dose: 2.0 mg/kg/injection, schedule: Q03HX024 (ip), vehicle: saline
  T/C: 105 % of control
endpoint: mean survival time, dose: 2.0 mg/kg/injection, schedule: Q04DX003 (ip), vehicle: saline
  T/C: 123 % of control
endpoint: mean survival time, dose: 2.0 mg/kg/injection, schedule: Q08DX002 (ip), vehicle: saline
  T/C: 113 % of control
endpoint: mean survival time, dose: 2.5 mg/kg/injection, schedule: Q01DX009 (ip), vehicle: saline
  T/C: 118 % of control
endpoint: mean survival time, dose: 2.5 mg/kg/injection, schedule: Q04DX003 (ip), vehicle: saline
  T/C: 105 % of control and 115 % of control
endpoint: mean survival time, dose: 3.0 mg/kg/injection, schedule: Q01DX009 (ip), vehicle: saline
  T/C: 163 % of control and 186 % of control and 193 % of control
endpoint: mean survival time, dose: 3.0 mg/kg/injection, schedule: Q01DX009 (ip), vehicle: water
  T/C: 224 % of control
endpoint: mean survival time, dose: 3.2 mg/kg/injection, schedule: Q01DX009 (ip), vehicle: saline
  T/C: 120 % of control
endpoint: mean survival time, dose: 3.3 mg/kg/injection, schedule: Q01DX001 (ip), vehicle: saline
  T/C: 154 % of control
endpoint: mean survival time, dose: 3.75 mg/kg/injection, schedule: Q01DX001 (ip), vehicle: saline
  T/C: 118 % of control
endpoint: mean survival time, dose: 4.0 mg/kg/injection, schedule: Q01DX001 (sc), vehicle: saline
  T/C: 115 % of control
endpoint: mean survival time, dose: 4.0 mg/kg/injection, schedule: Q01DX009 (ip), vehicle: saline
  T/C: 160 % of control
endpoint: mean survival time, dose: 4.0 mg/kg/injection, schedule: Q04DX003 (ip), vehicle: saline
  T/C: 168 % of control and 170 % of control and 198 % of control
endpoint: mean survival time, dose: 4.0 mg/kg/injection, schedule: Q08DX002 (ip), vehicle: saline
  T/C: 155 % of control
endpoint: mean survival time, dose: 4.6 mg/kg/injection, schedule: Q01DX001 (ip), vehicle: saline
  T/C: 113 % of control
endpoint: mean survival time, dose: 4.6 mg/kg/injection, schedule: Q01DX009 (ip), vehicle: saline
  T/C: 89 % of control
endpoint: mean survival time, dose: 4.6 mg/kg/injection, schedule: Q04DX003 (ip), vehicle: saline
  T/C: 242 % of control and 112 % of control
endpoint: mean survival time, dose: 4.6 mg/kg/injection, schedule: Q08DX002 (ip), vehicle: saline
  T/C: 163 % of control
endpoint: mean survival time, dose: 5.0 mg/kg/injection, schedule: Q01DX001 (ip), vehicle: saline
  T/C: 214 % of control
endpoint: mean survival time, dose: 5.0 mg/kg/injection, schedule: Q01DX009 (ip), vehicle: saline
  T/C: 95 % of control and 204 % of control and 255 % of control
endpoint: mean survival time, dose: 5.0 mg/kg/injection, schedule: Q01DX009 (ip), vehicle: water
  T/C: 108 % of control
endpoint: mean survival time, dose: 5.0 mg/kg/injection, schedule: Q04DX003 (ip), vehicle: saline
  T/C: 124 % of control
endpoint: mean survival time, dose: 6.7 mg/kg/injection, schedule: Q04DX003 (ip), vehicle: saline
  T/C: 195 % of control and 227 % of control
endpoint: mean survival time, dose: 7.0 mg/kg/injection, schedule: Q01DX001 (ip), vehicle: saline
  T/C: 157 % of control and 240 % of control and 117 % of control
endpoint: mean survival time, dose: 7.0 mg/kg/injection, schedule: Q01DX009 (ip), vehicle: saline
  T/C: 97 % of control and 115 % of control
endpoint: mean survival time, dose: 7.0 mg/kg/injection, schedule: Q04DX003 (ip), vehicle: saline
  T/C: 284 % of control and 122 % of control
endpoint: mean survival time, dose: 7.0 mg/kg/injection, schedule: Q08DX002 (ip), vehicle: saline
  T/C: 191 % of control
endpoint: mean survival time, dose: 7.5 mg/kg/injection, schedule: Q01DX001 (ip), vehicle: saline
  T/C: 185 % of control
endpoint: mean survival time, dose: 7.5 mg/kg/injection, schedule: Q01DX009 (ip), vehicle: saline
  T/C: 169 % of control
endpoint: mean survival time, dose: 8.0 mg/kg/injection, schedule: Q01DX001 (ip), vehicle: saline
  T/C: 158 % of control
endpoint: mean survival time, dose: 8.0 mg/kg/injection, schedule: Q01DX001 (oral), vehicle: saline
  T/C: 200 % of control
endpoint: mean survival time, dose: 8.0 mg/kg/injection, schedule: Q04DX003 (ip), vehicle: saline
  T/C: 300 % of control and 304 % of control
endpoint: mean survival time, dose: 8.0 mg/kg/injection, schedule: Q08DX002 (ip), vehicle: saline
  T/C: 193 % of control
endpoint: mean survival time, dose: 10.0 mg/kg/injection, schedule: Q01DX009 (ip), vehicle: saline
  T/C: 88 % of control
endpoint: mean survival time, dose: 10.0 mg/kg/injection, schedule: Q04DX003 (ip), vehicle: saline
  T/C: 404 % of control and 448 % of control and 471 % of control
endpoint: mean survival time, dose: 10.6 mg/kg/injection, schedule: Q01DX001 (ip), vehicle: saline
  T/C: 308 % of control and 105 % of control
endpoint: mean survival time, dose: 11.25 mg/kg/injection, schedule: Q01DX009 (ip), vehicle: saline
  T/C: 91 % of control
endpoint: mean survival time, dose: 12.5 mg/kg/injection, schedule: Q01DX009 (ip), vehicle: saline
  T/C: 110 % of control
endpoint: mean survival time, dose: 15.0 mg/kg/injection, schedule: Q04DX003 (ip), vehicle: saline
  T/C: 161 % of control and 172 % of control and 368 % of control
endpoint: mean survival time, dose: 16.0 mg/kg/injection, schedule: Q01DX001 (ip), vehicle: saline
  T/C: 368 % of control
endpoint: mean survival time, dose: 16.0 mg/kg/injection, schedule: Q01DX001 (sc), vehicle: saline
  T/C: 180 % of control
endpoint: mean survival time, dose: 24.0 mg/kg/injection, schedule: Q04DX003 (ip), vehicle: saline
  T/C: 191 % of control
endpoint: mean survival time, dose: 64.0 mg/kg/injection, schedule: Q01DX001 (ip), vehicle: saline
  T/C: 97 % of control
endpoint: mean survival time, dose: 118.0 mg/kg/injection, schedule: Q08DX002 (ip), vehicle: saline
  T/C: 105 % of control
endpoint: median survival time, dose: 1.0 mg/kg/injection, schedule: Q01DX009 (sc), vehicle: water
  T/C: 111 % of control
endpoint: median survival time, dose: 2.0 mg/kg/injection, schedule: Q01DX009 (ip), vehicle: water
  T/C: 188 % of control
endpoint: median survival time, dose: 2.0 mg/kg/injection, schedule: Q04DX003 (ip), vehicle: water
  T/C: 122 % of control
endpoint: median survival time, dose: 2.0 mg/kg/injection, schedule: Q04DX003 (sc), vehicle: water
  T/C: 111 % of control
endpoint: median survival time, dose: 2.5 mg/kg/injection, schedule: Q01DX001 (ip), vehicle: water
  T/C: 122 % of control
endpoint: median survival time, dose: 4.0 mg/kg/injection, schedule: Q01DX009 (ip), vehicle: water
  T/C: 116 % of control
endpoint: median survival time, dose: 4.0 mg/kg/injection, schedule: Q01DX009 (sc), vehicle: water
  T/C: 105 % of control
endpoint: median survival time, dose: 4.0 mg/kg/injection, schedule: Q04DX003 (ip), vehicle: water
  T/C: 166 % of control
endpoint: median survival time, dose: 4.0 mg/kg/injection, schedule: Q04DX003 (sc), vehicle: water
  T/C: 155 % of control
endpoint: median survival time, dose: 8.0 mg/kg/injection, schedule: Q04DX003 (ip), vehicle: water
  T/C: 94 % of control
endpoint: median survival time, dose: 8.0 mg/kg/injection, schedule: Q04DX003 (sc), vehicle: water
  T/C: 100 % of control
endpoint: median survival time, dose: 10.0 mg/kg/injection, schedule: Q01DX001 (ip), vehicle: water
  T/C: 154 % of control
endpoint: median survival time, dose: 20.0 mg/kg/injection, schedule: Q01DX001 (ip), vehicle: water
  T/C: 103 % of control
endpoint: median survival time, dose: 40.0 mg/kg/injection, schedule: Q01DX001 (ip), vehicle: water
  T/C: 99 % of control

## O=C(CCCc1ccccc1)N1CCOCC1
endpoint: mean survival time, dose: 100.0 mg/kg/injection, schedule: Q01DX009 (ip), vehicle: saline sonified
  T/C: 94 % of control
endpoint: mean survival time, dose: 200.0 mg/kg/injection, schedule: Q01DX009 (ip), vehicle: saline sonified
  T/C: 96 % of control
endpoint: mean survival time, dose: 400.0 mg/kg/injection, schedule: Q01DX009 (ip), vehicle: saline sonified
  T/C: 102 % of control

## O=C(O)C(Nc1cccc2ccccc12)c1ccccc1 (stereo unspecified)
endpoint: mean survival time, dose: 100.0 mg/kg/injection, schedule: Q04DX002 (ip), vehicle: Klucel (hydroxypropylcellulose) (HPC)
  T/C: 97 % of control
endpoint: mean survival time, dose: 200.0 mg/kg/injection, schedule: Q04DX002 (ip), vehicle: Klucel (hydroxypropylcellulose) (HPC)
  T/C: 111 % of control

## COc1cc([N+](=O)[O-])ccc1C#N
endpoint: mean survival time, dose: 100.0 mg/kg/injection, schedule: Q04DX003 (ip), vehicle: Klucel (hydroxypropylcellulose) (HPC)
  T/C: 113 % of control
endpoint: mean survival time, dose: 400.0 mg/kg/injection, schedule: Q04DX003 (ip), vehicle: Klucel (hydroxypropylcellulose) (HPC)
  T/C: 96 % of control
